Assays:
Assay type in all cases: biochemical
[1] = target: T1, Lck (Homo sapiens, UniProt P06239); assay: Kinase inhibition assay (33P transfer), Lck; conditions: Table 3, class symbols; read-out: Lck-1
T1 construct: Kinases are expressed as either kinase domains or full length constructs; made in house
Outline: (§1)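 Kinase domain or full-length constructs, GST- or polyHis-tagged, expressed in E. coli or baculovirus-High Five cells, sometimes with regulatory polypeptides. Activity measured as 33PO4 transfer from ATP to plate-bound poly(Glu,Tyr) 4:1 or poly(Arg,Ser) 3:1; after incubation, plates washed with 0.5% phosphoric acid and counted by liquid scintillation.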

[2] = target: T2, Zap-70 (Homo sapiens, UniProt P43403); assay: Kinase inhibition assay (33P transfer), Zap-70; conditions: Table 3, class symbols; read-out: Zap-1
T2 construct: Kinases are expressed as either kinase domains or full length constructs; made in house
T2 sequence (P43403 1-619): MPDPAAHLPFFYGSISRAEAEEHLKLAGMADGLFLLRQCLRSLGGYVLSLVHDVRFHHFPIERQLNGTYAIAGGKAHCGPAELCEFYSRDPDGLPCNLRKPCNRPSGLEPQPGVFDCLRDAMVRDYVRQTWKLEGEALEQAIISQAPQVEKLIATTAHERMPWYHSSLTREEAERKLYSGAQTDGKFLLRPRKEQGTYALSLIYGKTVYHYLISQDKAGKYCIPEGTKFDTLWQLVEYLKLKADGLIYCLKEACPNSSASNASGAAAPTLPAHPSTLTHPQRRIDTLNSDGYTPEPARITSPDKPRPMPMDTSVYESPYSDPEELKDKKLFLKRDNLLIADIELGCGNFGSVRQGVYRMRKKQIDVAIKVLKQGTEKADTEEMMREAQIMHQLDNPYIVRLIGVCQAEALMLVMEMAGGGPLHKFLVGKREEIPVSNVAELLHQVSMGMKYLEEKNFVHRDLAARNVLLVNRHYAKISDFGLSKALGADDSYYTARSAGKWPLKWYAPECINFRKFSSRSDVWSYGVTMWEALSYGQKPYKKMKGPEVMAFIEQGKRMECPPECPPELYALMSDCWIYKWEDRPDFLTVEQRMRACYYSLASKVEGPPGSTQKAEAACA
Outline: as §1

[3] = target: T3, Itk (Homo sapiens, UniProt Q08881); assay: Kinase inhibition assay (33P transfer), Itk; conditions: Table 3, class symbols; read-out: Itk-1
T3 construct: Kinases are expressed as either kinase domains or full length constructs; made in house
T3 sequence (Q08881 1-620): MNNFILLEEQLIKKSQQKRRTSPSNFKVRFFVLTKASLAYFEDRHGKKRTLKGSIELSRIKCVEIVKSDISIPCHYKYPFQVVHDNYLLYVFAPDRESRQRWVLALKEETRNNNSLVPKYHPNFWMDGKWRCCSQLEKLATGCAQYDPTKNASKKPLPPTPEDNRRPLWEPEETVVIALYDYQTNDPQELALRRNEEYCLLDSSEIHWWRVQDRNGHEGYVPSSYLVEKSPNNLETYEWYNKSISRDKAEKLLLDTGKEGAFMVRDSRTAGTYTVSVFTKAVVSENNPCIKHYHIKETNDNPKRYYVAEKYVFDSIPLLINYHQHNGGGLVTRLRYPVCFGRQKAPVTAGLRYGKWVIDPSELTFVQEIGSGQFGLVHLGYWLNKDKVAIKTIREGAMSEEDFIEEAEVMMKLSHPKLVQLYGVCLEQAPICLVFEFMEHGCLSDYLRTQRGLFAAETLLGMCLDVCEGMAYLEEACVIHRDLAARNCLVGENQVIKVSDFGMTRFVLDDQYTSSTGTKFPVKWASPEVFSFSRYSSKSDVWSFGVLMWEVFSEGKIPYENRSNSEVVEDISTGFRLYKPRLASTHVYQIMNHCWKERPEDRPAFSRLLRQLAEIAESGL
Outline: (§2)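 Using immobilised substrate copolymers (poly(Glu,Tyr) 4:1; poly(Arg,Ser) 3:1) and [33P]ATP, purified fusion kinases were allowed to react; plates were then rinsed in 0.5% phosphoric acid and counted in a scintillation detector. Half-maximal inhibition of label transfer defines IC50.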

[4] = target: T4, EGFR (Homo sapiens, UniProt P00533); assay: Kinase inhibition assay (33P transfer), EGFR; conditions: Table 2, class symbols A-E; read-out: EGFR-1
T4 construct: Kinases are expressed as either kinase domains or full length constructs; made in house
T4 sequence (P00533 25-1210, species assumed): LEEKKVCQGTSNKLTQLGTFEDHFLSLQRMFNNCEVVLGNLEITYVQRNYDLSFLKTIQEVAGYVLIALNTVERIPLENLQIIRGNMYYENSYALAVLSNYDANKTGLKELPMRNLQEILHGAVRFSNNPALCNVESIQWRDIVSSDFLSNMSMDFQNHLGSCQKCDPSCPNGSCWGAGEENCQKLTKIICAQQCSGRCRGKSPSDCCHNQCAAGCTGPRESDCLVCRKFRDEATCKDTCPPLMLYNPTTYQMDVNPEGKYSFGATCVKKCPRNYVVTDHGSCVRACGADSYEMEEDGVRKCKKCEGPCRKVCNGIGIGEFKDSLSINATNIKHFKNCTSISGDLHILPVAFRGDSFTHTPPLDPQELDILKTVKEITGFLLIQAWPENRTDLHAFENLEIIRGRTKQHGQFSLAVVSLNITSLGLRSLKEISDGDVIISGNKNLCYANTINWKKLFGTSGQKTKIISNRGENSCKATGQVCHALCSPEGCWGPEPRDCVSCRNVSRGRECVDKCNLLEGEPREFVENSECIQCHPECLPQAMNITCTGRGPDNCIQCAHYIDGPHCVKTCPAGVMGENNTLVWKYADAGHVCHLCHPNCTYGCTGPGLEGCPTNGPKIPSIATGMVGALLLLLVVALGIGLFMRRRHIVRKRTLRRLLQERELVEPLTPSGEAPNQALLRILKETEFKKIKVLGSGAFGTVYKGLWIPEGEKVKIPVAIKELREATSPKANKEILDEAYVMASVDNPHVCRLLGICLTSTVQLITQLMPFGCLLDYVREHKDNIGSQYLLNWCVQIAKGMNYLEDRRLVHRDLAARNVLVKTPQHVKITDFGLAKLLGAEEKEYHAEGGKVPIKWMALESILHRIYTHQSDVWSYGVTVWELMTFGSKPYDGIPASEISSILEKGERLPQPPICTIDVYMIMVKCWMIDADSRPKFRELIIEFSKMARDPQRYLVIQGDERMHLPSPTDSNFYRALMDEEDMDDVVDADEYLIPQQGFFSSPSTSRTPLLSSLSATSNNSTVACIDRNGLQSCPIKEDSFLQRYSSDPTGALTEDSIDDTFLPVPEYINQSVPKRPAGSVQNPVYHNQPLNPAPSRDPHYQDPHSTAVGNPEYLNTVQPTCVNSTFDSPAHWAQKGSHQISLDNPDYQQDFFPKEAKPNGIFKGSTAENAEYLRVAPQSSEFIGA
Outline: as §2

[5] = target: T5, ErbB2 (Homo sapiens, UniProt P04626); assay: Kinase inhibition assay (33P transfer), ErbB2; conditions: read-out: ErbB2-2
T5 construct: Kinases are expressed as either kinase domains or full length constructs; made in house
Outline: as §2

[6] = target: T6, Kdr (Homo sapiens, UniProt P35968); assay: Kinase inhibition assay (33P transfer), Kdr; conditions: Table 3, class symbols; read-out: KDR-1
T6 construct: Kinases are expressed as either kinase domains or full length constructs; made in house
T6 sequence (P35968 20-1356, species assumed): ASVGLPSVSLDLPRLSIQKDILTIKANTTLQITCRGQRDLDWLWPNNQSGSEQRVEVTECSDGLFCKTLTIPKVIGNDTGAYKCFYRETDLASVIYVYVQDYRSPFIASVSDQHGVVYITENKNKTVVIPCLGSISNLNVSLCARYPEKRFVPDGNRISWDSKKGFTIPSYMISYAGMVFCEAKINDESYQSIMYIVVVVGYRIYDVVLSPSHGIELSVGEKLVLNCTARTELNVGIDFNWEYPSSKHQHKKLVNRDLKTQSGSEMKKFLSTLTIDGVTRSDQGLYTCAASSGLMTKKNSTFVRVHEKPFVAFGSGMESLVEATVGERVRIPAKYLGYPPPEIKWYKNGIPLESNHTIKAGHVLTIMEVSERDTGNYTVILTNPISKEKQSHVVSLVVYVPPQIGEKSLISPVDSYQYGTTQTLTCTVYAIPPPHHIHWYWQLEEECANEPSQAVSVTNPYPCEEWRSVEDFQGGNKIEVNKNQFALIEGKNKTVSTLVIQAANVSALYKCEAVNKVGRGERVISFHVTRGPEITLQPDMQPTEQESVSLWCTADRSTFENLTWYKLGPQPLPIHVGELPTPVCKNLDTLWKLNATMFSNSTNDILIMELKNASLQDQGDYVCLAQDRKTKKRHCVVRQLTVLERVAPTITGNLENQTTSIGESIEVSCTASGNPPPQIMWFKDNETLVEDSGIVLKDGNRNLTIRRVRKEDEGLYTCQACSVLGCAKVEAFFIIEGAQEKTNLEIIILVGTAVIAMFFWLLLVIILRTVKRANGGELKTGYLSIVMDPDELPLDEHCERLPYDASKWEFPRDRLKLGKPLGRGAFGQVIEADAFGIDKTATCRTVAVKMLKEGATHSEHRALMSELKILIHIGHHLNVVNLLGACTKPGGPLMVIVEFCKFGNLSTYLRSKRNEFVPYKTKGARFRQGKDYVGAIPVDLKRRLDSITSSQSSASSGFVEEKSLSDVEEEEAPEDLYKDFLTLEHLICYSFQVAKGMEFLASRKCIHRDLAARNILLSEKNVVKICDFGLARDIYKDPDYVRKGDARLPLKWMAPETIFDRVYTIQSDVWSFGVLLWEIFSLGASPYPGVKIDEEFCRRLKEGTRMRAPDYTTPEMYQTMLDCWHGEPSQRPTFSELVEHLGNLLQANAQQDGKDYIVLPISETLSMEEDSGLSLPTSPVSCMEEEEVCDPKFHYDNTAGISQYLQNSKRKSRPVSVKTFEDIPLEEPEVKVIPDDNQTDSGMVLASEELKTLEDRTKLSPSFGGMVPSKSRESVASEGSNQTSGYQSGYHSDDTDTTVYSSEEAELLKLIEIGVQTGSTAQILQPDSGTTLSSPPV
Outline: as §1

[7] = target: T7, c-Met (Homo sapiens, UniProt P08581); assay: Kinase inhibition assay (33P transfer), c-Met; conditions: Table 2, class symbols A-E; read-out: Met-1
T7 construct: Kinases are expressed as either kinase domains or full length constructs; made in house
T7 sequence (P08581 25-1390): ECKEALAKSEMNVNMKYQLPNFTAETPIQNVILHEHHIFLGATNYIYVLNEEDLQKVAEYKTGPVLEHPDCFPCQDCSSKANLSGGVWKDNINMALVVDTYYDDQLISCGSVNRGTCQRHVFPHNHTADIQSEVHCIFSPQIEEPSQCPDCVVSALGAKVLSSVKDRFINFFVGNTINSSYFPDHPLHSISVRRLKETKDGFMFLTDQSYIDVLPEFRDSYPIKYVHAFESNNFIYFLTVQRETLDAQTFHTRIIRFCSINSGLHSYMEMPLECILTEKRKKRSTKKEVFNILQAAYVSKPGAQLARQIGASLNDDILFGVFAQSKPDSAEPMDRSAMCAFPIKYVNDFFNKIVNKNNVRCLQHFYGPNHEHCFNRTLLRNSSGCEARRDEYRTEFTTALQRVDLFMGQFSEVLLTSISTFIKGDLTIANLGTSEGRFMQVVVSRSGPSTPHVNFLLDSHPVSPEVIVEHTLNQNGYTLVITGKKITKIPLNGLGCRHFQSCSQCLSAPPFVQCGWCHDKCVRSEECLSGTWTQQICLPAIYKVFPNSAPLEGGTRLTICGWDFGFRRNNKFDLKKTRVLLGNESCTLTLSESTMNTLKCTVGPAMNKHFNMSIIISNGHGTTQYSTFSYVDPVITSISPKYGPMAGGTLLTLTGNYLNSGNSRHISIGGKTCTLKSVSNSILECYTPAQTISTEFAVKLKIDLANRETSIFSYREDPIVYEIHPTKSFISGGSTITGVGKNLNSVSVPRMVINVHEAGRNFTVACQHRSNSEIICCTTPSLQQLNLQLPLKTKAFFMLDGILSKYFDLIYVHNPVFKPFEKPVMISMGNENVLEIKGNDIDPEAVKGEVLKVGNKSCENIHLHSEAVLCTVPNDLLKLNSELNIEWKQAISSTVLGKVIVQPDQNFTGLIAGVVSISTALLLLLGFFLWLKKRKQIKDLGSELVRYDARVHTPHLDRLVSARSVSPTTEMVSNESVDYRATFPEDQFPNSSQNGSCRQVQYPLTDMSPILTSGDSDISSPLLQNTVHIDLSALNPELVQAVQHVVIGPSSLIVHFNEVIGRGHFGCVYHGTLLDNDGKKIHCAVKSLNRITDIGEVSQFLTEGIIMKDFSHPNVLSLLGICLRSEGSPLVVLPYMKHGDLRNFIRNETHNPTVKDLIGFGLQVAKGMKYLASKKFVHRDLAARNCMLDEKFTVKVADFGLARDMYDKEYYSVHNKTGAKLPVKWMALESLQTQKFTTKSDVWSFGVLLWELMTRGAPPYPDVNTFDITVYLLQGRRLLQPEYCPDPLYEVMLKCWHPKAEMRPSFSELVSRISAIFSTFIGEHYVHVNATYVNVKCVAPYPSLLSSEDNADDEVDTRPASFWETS
Outline: as §2

[8] = target: T8, AKT (Homo sapiens, UniProt Q9Y243); assay: Kinase inhibition assay (33P transfer), AKT; conditions: Table 2, class symbols A-E; read-out: AKT3-1
T8 construct: Kinases are expressed as either kinase domains or full length constructs; made in house
T8 sequence (Q9Y243 whole entry, the tested form may be a part): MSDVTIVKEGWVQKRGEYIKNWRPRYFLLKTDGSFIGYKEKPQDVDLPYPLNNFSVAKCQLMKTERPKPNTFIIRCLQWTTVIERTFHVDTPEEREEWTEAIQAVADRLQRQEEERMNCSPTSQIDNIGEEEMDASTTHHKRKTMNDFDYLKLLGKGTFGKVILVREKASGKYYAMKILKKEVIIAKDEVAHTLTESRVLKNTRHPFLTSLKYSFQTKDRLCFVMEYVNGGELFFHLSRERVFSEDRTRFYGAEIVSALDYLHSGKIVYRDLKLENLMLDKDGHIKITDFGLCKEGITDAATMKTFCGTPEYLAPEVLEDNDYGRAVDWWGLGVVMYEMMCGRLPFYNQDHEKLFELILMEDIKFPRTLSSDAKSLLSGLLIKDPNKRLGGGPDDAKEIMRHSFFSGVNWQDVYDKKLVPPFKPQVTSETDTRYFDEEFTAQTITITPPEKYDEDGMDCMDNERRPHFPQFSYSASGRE
Outline: as §1

[9] = target: T9, IGFR-1 (Homo sapiens, UniProt P08069); assay: Kinase inhibition assay (33P transfer), IGFR-1; conditions: Table 2, class symbols A-E
T9 construct: Kinases are expressed as either kinase domains or full length constructs; made in house

[10] = target: T10, PDGFRB (Homo sapiens, UniProt P09619); assay: Kinase inhibition assay (33P transfer), PDGFRB; conditions: read-out: PDGFRB-1
T10 construct: Kinases are expressed as either kinase domains or full length constructs; made in house

T1 sequence (P06239 whole entry, species assumed, the tested form may be a part): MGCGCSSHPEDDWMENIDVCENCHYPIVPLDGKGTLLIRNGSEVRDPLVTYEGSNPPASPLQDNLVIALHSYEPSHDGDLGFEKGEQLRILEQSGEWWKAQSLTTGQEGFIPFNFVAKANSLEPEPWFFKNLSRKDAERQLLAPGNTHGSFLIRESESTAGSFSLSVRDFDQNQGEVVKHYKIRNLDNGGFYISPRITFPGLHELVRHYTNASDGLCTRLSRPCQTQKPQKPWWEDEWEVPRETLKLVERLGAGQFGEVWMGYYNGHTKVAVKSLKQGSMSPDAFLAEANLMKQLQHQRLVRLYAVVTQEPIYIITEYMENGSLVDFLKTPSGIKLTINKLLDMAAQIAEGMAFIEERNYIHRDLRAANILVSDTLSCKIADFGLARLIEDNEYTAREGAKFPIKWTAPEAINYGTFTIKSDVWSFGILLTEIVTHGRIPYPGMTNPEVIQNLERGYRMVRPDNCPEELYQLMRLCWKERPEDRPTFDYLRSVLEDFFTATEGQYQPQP

IC50 [1]	IC50 [2]	IC50 [3]	IC50 [4]	IC50 [5]	IC50 [6]	IC50 [7]	IC50 [8]	IC50 [9]	IC50 [10]	Compound
< 0.888 µM	> 9.99 µM	7.77 to 9.99 µM	< 0.888 µM	0.888 to 5.33 µM	< 0.888 µM	5.33 to 7.77 µM	7.77 to 9.99 µM	> 9.99 µM	< 0.888 µM	NC(=O)Cc1cccc(Nc2ncnc(-n3c(NCc4ccccc4)nc4ccccc43)n2)c1 [Compound 967]
> 10.5 µM	> 10.5 µM	> 10.5 µM	< 0.935 µM	< 0.935 µM	> 10.5 µM	> 10.5 µM	> 10.5 µM	> 10.5 µM	> 10.5 µM	COc1cc(Nc2ncnc(N3CCCc4ccc(Cl)cc43)n2)cc(OC)c1OC [Compound 645]
> 10.4 µM	> 10.4 µM	8.11 to 10.4 µM	0.927 to 5.56 µM	> 10.4 µM	> 10.4 µM	0.927 to 5.56 µM	> 10.4 µM	5.56 to 8.11 µM	0.927 to 5.56 µM	CCOc1ccc(Nc2ncnc(Nc3cc(-c4ccc(C(=O)OC)cc4)n[nH]3)n2)cc1 [Compound 879]
0.913 to 5.48 µM	> 10.3 µM	0.913 to 5.48 µM	7.99 to 10.3 µM	0.913 to 5.48 µM	0.913 to 5.48 µM	0.913 to 5.48 µM	> 10.3 µM	< 0.913 µM	> 10.3 µM	COc1cc(C)c(Nc2ncnc(Nc3cc(-c4ccc(Cl)cc4)n[nH]3)n2)cc1OC [Compound 1128]
> 11.4 µM	> 11.4 µM	> 11.4 µM	> 11.4 µM	> 11.4 µM	> 11.4 µM	> 11.4 µM	> 11.4 µM	> 11.4 µM	1.01 to 6.05 µM	COC(=O)c1ccc(-c2cc(Nc3ncnc(NCCNC(C)=O)n3)[nH]n2)cc1 [Compound 819]
1.13 to 6.79 µM	> 12.7 µM	1.13 to 6.79 µM	1.13 to 6.79 µM	> 12.7 µM	1.13 to 6.79 µM	1.13 to 6.79 µM	> 12.7 µM	< 1.13 µM	> 12.7 µM	C#Cc1cccc(Nc2ncnc(Nc3cc(-c4ccccc4)n[nH]3)n2)c1 [Compound 1008]
1.09 to 6.57 µM	> 12.3 µM	> 12.3 µM	1.09 to 6.57 µM	6.57 to 9.58 µM	> 12.3 µM	> 12.3 µM	> 12.3 µM	> 12.3 µM	> 12.3 µM	COc1ccc(Nc2ncnc(N(C)[C@H](C)c3ccccc3)n2)cc1OC [Compound 803]
> 11.2 µM	> 11.2 µM	0.994 to 5.96 µM	> 11.2 µM	8.7 to 11.2 µM	> 11.2 µM	5.96 to 8.7 µM	8.7 to 11.2 µM	5.96 to 8.7 µM	8.7 to 11.2 µM	COC(=O)c1ccc(-c2cc(Nc3ncnc(NCc4cccnc4)n3)[nH]n2)cc1 [Compound 809]
> 11.8 µM	> 11.8 µM	1.05 to 6.29 µM	1.05 to 6.29 µM	> 11.8 µM	> 11.8 µM	> 11.8 µM	> 11.8 µM	> 11.8 µM	1.05 to 6.29 µM	COc1ccc(Nc2ncnc(N(C)CC(O)c3ccccc3)n2)cc1OC (centres unmarked) [Compound 868]
> 10.5 µM	> 10.5 µM	> 10.5 µM	< 0.935 µM	0.935 to 5.61 µM	0.935 to 5.61 µM	0.935 to 5.61 µM	> 10.5 µM	> 10.5 µM	< 0.935 µM	COc1cc(Nc2ncnc(N3CCCc4c(Cl)cccc43)n2)cc(OC)c1OC [Compound 643]
> 10.3 µM	> 10.3 µM	> 10.3 µM	< 0.914 µM	< 0.914 µM	< 0.914 µM	> 10.3 µM	> 10.3 µM	> 10.3 µM	< 0.914 µM	O=C(O)c1cccc(Nc2ncnc(-n3c(NCc4ccccc4)nc4ccccc43)n2)c1 [Compound 1069]
> 12.5 µM	> 12.5 µM	> 12.5 µM	> 12.5 µM	> 12.5 µM	> 12.5 µM	> 12.5 µM	> 12.5 µM	> 12.5 µM	> 12.5 µM	CCN(CC)CCN(C)c1ncnc(Nc2ccc(OC)c(OC)c2)n1 [Compound 870]
0.935 to 5.61 µM	> 10.5 µM	> 10.5 µM	< 0.935 µM	5.61 to 8.18 µM	< 0.935 µM	< 0.935 µM	> 10.5 µM	> 10.5 µM	< 0.935 µM	COc1cc(Nc2ncnc(N3CCCc4cc(Cl)ccc43)n2)cc(OC)c1OC [Compound 639]
5.63 to 8.21 µM	> 10.6 µM	< 0.938 µM	0.938 to 5.63 µM	0.938 to 5.63 µM	< 0.938 µM	< 0.938 µM	0.938 to 5.63 µM	< 0.938 µM	0.938 to 5.63 µM	CNS(=O)(=O)Cc1ccc(Nc2ncnc(Nc3cc(-c4ccco4)[nH]n3)n2)cc1 [Compound 888]
> 9.52 µM	> 9.52 µM	> 9.52 µM	> 9.52 µM	> 9.52 µM	7.41 to 9.52 µM	> 9.52 µM	> 9.52 µM	> 9.52 µM	0.846 to 5.08 µM	COc1cc(Nc2ncnc(-c3cccnc3NCC(C)c3ccccc3)n2)cc(OC)c1OC (centres unmarked) [Compound 890]
1.02 to 6.13 µM	> 11.5 µM	6.13 to 8.94 µM	< 1.02 µM	1.02 to 6.13 µM	< 1.02 µM	< 1.02 µM	1.02 to 6.13 µM	< 1.02 µM	1.02 to 6.13 µM	O=C(O)CCc1cccc(Nc2ncnc(Nc3cc(-c4ccco4)[nH]n3)n2)c1 [Compound 887]
1.02 to 6.11 µM	> 11.5 µM	1.02 to 6.11 µM	< 1.02 µM	< 1.02 µM	1.02 to 6.11 µM	< 1.02 µM	> 11.5 µM	> 11.5 µM	< 1.02 µM	CN(c1cccc(Cl)c1)c1ncnc(Nc2cccc(Cn3ccnn3)c2)n1 [Compound 678]
5.95 to 8.68 µM	0.991 to 5.95 µM	0.991 to 5.95 µM	0.991 to 5.95 µM	< 0.991 µM	< 0.991 µM	< 0.991 µM	0.991 to 5.95 µM	< 0.991 µM	< 0.991 µM	c1coc(-c2cc(Nc3ncnc(Nc4ccc(-c5csnn5)cc4)n3)n[nH]2)c1 [Compound 891]
> 12.7 µM	> 12.7 µM	> 12.7 µM	1.13 to 6.79 µM	> 12.7 µM	> 12.7 µM	1.13 to 6.79 µM	1.13 to 6.79 µM	> 12.7 µM	1.13 to 6.79 µM	Cc1ccc2c(c1)CCCN2c1ncnc(Nc2ccc(F)c(F)c2)n1 [Compound 893]
0.984 to 5.9 µM	> 11.1 µM	0.984 to 5.9 µM	0.984 to 5.9 µM	0.984 to 5.9 µM	0.984 to 5.9 µM	0.984 to 5.9 µM	5.9 to 8.61 µM	5.9 to 8.61 µM	< 0.984 µM	COc1ccc(Nc2ncnc(Nc3ccc(N4CCCCC4)cc3)n2)cc1OC [Compound 899]

From patent US7074789B2, “Kinase inhibitors” (Amgen Inc., priority 1999, dated 2006)
